How the values were obtained:
MDA-MB-231 cells [1] = assay: Single-cell adhesion assay (SCAMA, detachment negative pressure); assay type: cell-based, human
Protocol: FIG. 4 is a schematic illustration of the single-cell adhesion measurement apparatus (SCAMA) first described in the paper by Palmer et al. (2008). Human breast cancer cells from the MDA-MB-231 cell line were plated at a density of 2.5×10^4 cells/ml and left to settle in a cell culture dish 401 for 48 hours prior to measurements. Medium was removed and 2 ml of the drug under study was applied for 10 minutes. Adhesion was measured using a glass micropipette 402 connected to a vacuum pump 403 via plastic tubing 404. The tip of the micropipette was drawn to about 20 μm (range, 17-24 μm) tip diameter. The vacuum pump was used to create negative pressure inside a reservoir 405 so that the negative pressure could be applied to the tip of the micropipette by pressing the thumb to the open end of a sealable T-piece 406. […] The pressure was measured using a digital manometer 409 connected to a computer 410 via a RS232 cable 411. Using a micromanipulator 412, the micropipette 402 was positioned on the periphery of a single cell. […] The negative pressure required to detach the cell was recorded on the computer as a pressure spike. The peak of the spike (“detachment negative pressure” (DNP)) was used as a measure of the cell's adhesiveness. Using this technique, several recordings could be made from a single dish within minutes. […] In order to test for the reversibility of a given effect, the pharmacological agent was washed off, fresh medium was added and the plate was incubated for a further 10 minutes prior to re-measurement. Each treatment was carried out on at least two dishes of cells, at least 100 cells per dish were measured, and the experiment was repeated three times (with corresponding controls). In the single cell adhesion experiments, hypoxia was induced chemically by application of hydrogen peroxide (1-500 μM) for 24 hours.

MDA-MB-231 cells [2] = assay: Invasion assay (Matrigel Transwell); assay type: cell-based, human
Source text: (§1) This assay is an extension of the transverse migration assay described above. To “invade”, the cells need both (i) to move as in the transverse migration assay and (ii) secrete a proteolytic enzyme to digest their surroundings. The ability of cells to invade neighbouring tissues by enzyme secretion was therefore assessed by using a layer of Matrigel™ (BD Biosciences) spread across the porous membrane of a Transwell® insert.
(§2) FIG. 7 is a schematic side sectional view of an invasion chamber 701 having a Transwell® insert 702 separating the chamber into upper 703 and lower 704 sections. The insert 702 has a migration filter membrane 705 in its base with 8 μm pores 706 extending therethrough. A layer 707 of Matrigel™ is shown coating the filter membrane 705.
(§3) Cells 708 were plated at a density of 2×10^4/ml onto the Matrigel™ layer 707 in 24-well plates (Becton-Dickinson) according to the manufacturers' instructions. 50 μl Matrigel™ was seeded at a 1:7 dilution (10 mg/ml stock) onto the inserts and left overnight. Prior to seeding with the cells the Matrigel™ was rehydrated using medium with no additions. This medium was removed prior to seeding the cells.
(§4) Cells were plated in a 1-5% FBS chemotactic gradient overnight (12 hours). The nutrient concentration in the medium 709 in the upper section 703 of the chamber was less than the concentration of nutrient in the medium 710 in the lower section 704 to induced movement of the cells through the Matrigel™ layer 707 and through the pores 706 to the underside of the filter membrane 705. At the end of each assay, non-invaded/non-migrated cells were removed from the upper surface of the insert 702 with two different swabs.
(§5) The number of cells invading to the underside of the insert 702 was determined using crystal violet staining. Invaded cells were fixed for 15 minutes with ice-cold methanol. Then 0.5% crystal violet (in 25% methanol) was added for 15 minutes. The inserts were swabbed again and then washed in water and allowed to dry. Cells were then counted using twelve separate fields of view per insert (×200 magnification). If the difference in the average number of cells invading the two control inserts was more than 40%, the experiment was rejected.
(§6) With the exception of single cell adhesion tests, which are discussed in the following paragraph, experiments were carried out under either; • (i) normal normoxic conditions ([…], 5% carbon dioxide), or • (ii) following 24 hours hypoxic pre-treatment (2% O2, 5% CO2, 93% N2) continued during the assays.

MDA-MB-231 cells [3] = assay: Cell viability assay (trypan blue); assay type: cell-based, human; conditions: Normoxia, 48 hours
Protocol: Cells were seeded at a density of 5×10^4 cells/ml in 35 mm Falcon tissue culture dishes. After treatment with a given drug, the medium was removed and replaced with 800 μl of growth medium and 200 μl 0.4% trypan blue (Sigma, Dorset, UK) and incubated for 10 minutes in the incubator. The trypan blue was removed and the cells were washed once with 3 ml growth medium. For each treatment, cells from 30 random fields of view were counted under 100× magnification. The number of dead cells, stained blue, was counted in each field of view. The data were expressed as percentages of living cells out of the total number of cells in given fields of view. The percentages were averaged and differences between control and treatment were compared from at least three independent experiments.
as §6

Mat-LyLu cells = assay: Invasion assay (Matrigel Transwell); assay type: cell-based, rat
Source text: as §1, §2, §3, §4, §5, §6

[4] = Hypoxia, 5 μM, 72 hours pretreatment
[5] = Hypoxia, 20 μM, listed as RANOLAZINE
[6] = Hypoxia, 50 μM, listed as RANOLAZINE
[7] = Hypoxia, 300 μM, listed as RANOLAZINE
[8] = Normoxia, 20 μM, listed as RANOLAZINE
[9] = Normoxia, 50 μM, listed as RANOLAZINE
[10] = Normoxia, 300 μM, listed as RANOLAZINE

## COc1ccccc1OCC(O)CN1CCN(CC(=O)Nc2c(C)cccc2C)CC1 (stereo not shown) [ranolazine]
MDA-MB-231 cells [1]; Hypoxia (chemically induced, hydrogen peroxide 24 hours), 0.1 μM
  ADHESION: increased
MDA-MB-231 cells [1]; Hypoxia (chemically induced, hydrogen peroxide 24 hours), 1 μM
  ADHESION: continued to increase
MDA-MB-231 cells [1]; Hypoxia (chemically induced, hydrogen peroxide 24 hours), 1 μM, listed as RANOLAZINE
  ADHESION: increased
MDA-MB-231 cells [1]; Hypoxia (chemically induced, hydrogen peroxide 24 hours), 10 μM
  ADHESION: continued to increase
MDA-MB-231 cells [1]; Hypoxia (chemically induced, hydrogen peroxide 24 hours), 10 μM, listed as RANOLAZINE
  ADHESION: decreased
MDA-MB-231 cells [1]; Hypoxia (chemically induced, hydrogen peroxide 24 hours), 100 μM
  ADHESION: continued to increase
MDA-MB-231 cells [1]; Hypoxia (chemically induced, hydrogen peroxide 24 hours), 100 μM, listed as RANOLAZINE
  ADHESION: no benefit
MDA-MB-231 cells [1]; Normoxia, 0.1 μM
  ADHESION: no effect
MDA-MB-231 cells [1]; Normoxia, 0.5 μM
  ADHESION: increased
MDA-MB-231 cells [1]; Normoxia, 1 μM
  ADHESION: increased
MDA-MB-231 cells [1]; Normoxia, 10 μM
  ADHESION: increased
MDA-MB-231 cells [1]; Normoxia, 20 μM
  ADHESION: increased
MDA-MB-231 cells [1]; Normoxia, 100 μM
  ADHESION: increased
MDA-MB-231 cells [1]; before convergence at the higher drug concentrations
  effect on adhesion in hypoxia compared with normoxia: approximately 10 fold
MDA-MB-231 cells [2]; Hypoxia, 5 μM
  INVASIVENESS (no pretreatment): not statistically significant
MDA-MB-231 cells [2]; [4]
  INVASIVENESS (pretreatment): very significant reduction
MDA-MB-231 cells [2]; Hypoxia, 5 μM, 72 hours pretreatment, listed as RANOLAZINE
  INVASIVENESS (pretreatment): decreased
MDA-MB-231 cells [2]; Hypoxia, 5 μM, listed as RANOLAZINE
  INVASIVENESS (no pretreatment): no benefit
MDA-MB-231 cells [2]; Hypoxia, 10 μM
  INVASIVENESS (no pretreatment): not statistically significant
MDA-MB-231 cells [2]; Hypoxia, 10 μM, listed as RANOLAZINE
  INVASIVENESS (no pretreatment): decreased
MDA-MB-231 cells [2]; Hypoxia, 20 μM
  INVASIVENESS (no pretreatment): reduced the migration of the cells
MDA-MB-231 cells [2]; [5]
  INVASIVENESS (no pretreatment): no benefit
MDA-MB-231 cells [2]; Hypoxia, 25 μM
  INVASIVENESS (no pretreatment): less invasive than untreated cells in a statistically significant way
MDA-MB-231 cells [2]; Hypoxia, 25 μM, 48 hours
  INVASIVENESS (pretreatment): decreased
MDA-MB-231 cells [2]; Hypoxia, 25 μM, 72 hours
  INVASIVENESS (pretreatment): decreased
MDA-MB-231 cells [2]; Hypoxia, 25 μM, listed as RANOLAZINE
  INVASIVENESS (no pretreatment): decreased
MDA-MB-231 cells [2]; Hypoxia, 25 μM, pre-treated for 24 hours before the 24 hour long assay
  invasiveness (pre-treatment): significantly less invasive
MDA-MB-231 cells [2]; Hypoxia, 25 μM, pre-treated for 48 hours before the 24 hour long assay
  invasiveness (pre-treatment): significantly less invasive
MDA-MB-231 cells [2]; Hypoxia, 50 μM
  INVASIVENESS (no pretreatment): reduced the migration of the cells
MDA-MB-231 cells [2]; [6]
  INVASIVENESS (no pretreatment): decreased
MDA-MB-231 cells [2]; Hypoxia, 300 μM
  INVASIVENESS (no pretreatment): reduced the migration of the cells
MDA-MB-231 cells [2]; [7]
  INVASIVENESS (no pretreatment): decreased
MDA-MB-231 cells [2]; Normoxia, 10 μM
  INVASIVENESS (no pretreatment): reduced the migration of the cells
MDA-MB-231 cells [2]; Normoxia, 10 μM, listed as RANOLAZINE
  INVASIVENESS (no pretreatment): decreased
MDA-MB-231 cells [2]; Normoxia, 20 μM
  INVASIVENESS (no pretreatment): reduced the migration of the cells
MDA-MB-231 cells [2]; [8]
  INVASIVENESS (no pretreatment): decreased
MDA-MB-231 cells [2]; Normoxia, 50 μM
  INVASIVENESS (no pretreatment): not statistically significant
MDA-MB-231 cells [2]; [9]
  INVASIVENESS (no pretreatment): no effect
MDA-MB-231 cells [2]; Normoxia, 300 μM
  INVASIVENESS (no pretreatment): reduced the migration of the cells
MDA-MB-231 cells [2]; [10]
  INVASIVENESS (no pretreatment): decreased
MDA-MB-231 cells [2]; higher concentrations tested, TTX 10 μmol
  potency on invasiveness compared with positive control TTX: more potent than the toxin (TTX)
MDA-MB-231 cells [3]; 1 μM
  CELL VIABILITY: no effect
MDA-MB-231 cells [3]; 10 μM
  CELL VIABILITY: no effect
MDA-MB-231 cells [3]; 100 μM
  CELL VIABILITY: no effect
Mat-LyLu cells; Hypoxia, 20 μM
  INVASIVENESS (no pretreatment): reduced the migration of the cells in a statistically significant way
Mat-LyLu cells; [5]
  INVASIVENESS (no pretreatment): decreased
Mat-LyLu cells; Hypoxia, 50 μM
  INVASIVENESS (no pretreatment): reduced the migration of the cells in a statistically significant way
Mat-LyLu cells; [6]
  INVASIVENESS (no pretreatment): decreased
Mat-LyLu cells; Hypoxia, 300 μM
  INVASIVENESS (no pretreatment): reduced the migration of the cells in a statistically significant way
Mat-LyLu cells; [7]
  INVASIVENESS (no pretreatment): decreased
Mat-LyLu cells; Normoxia, 20 μM
  INVASIVENESS (no pretreatment): reduced the migration of the cells in a statistically significant way
Mat-LyLu cells; [8]
  INVASIVENESS (no pretreatment): decreased
Mat-LyLu cells; Normoxia, 50 μM
  INVASIVENESS (no pretreatment): reduced the migration of the cells in a statistically significant way
Mat-LyLu cells; [9]
  INVASIVENESS (no pretreatment): decreased
Mat-LyLu cells; Normoxia, 300 μM
  INVASIVENESS (no pretreatment): reduced the migration of the cells in a statistically significant way
Mat-LyLu cells; [10]
  INVASIVENESS (no pretreatment): decreased
Mat-LyLu cells; higher concentrations tested, TTX 1 μM
  potency on invasiveness compared with positive control TTX: more potent than the toxin (TTX)

## Nc1nc2ccc(OC(F)(F)F)cc2s1 [riluzole]
MDA-MB-231 cells [2]; Hypoxia, 1 μM
  INVASIVENESS (no pretreatment): decreased
MDA-MB-231 cells [2]; [4]
  INVASIVENESS (pretreatment): significantly inhibited invasiveness
MDA-MB-231 cells [2]; Hypoxia, 5 μM, 72 hours pretreatment, listed as RILUZOLE
  INVASIVENESS (pretreatment): decreased
MDA-MB-231 cells [2]; Hypoxia, 5 μM, listed as RILUZOLE
  INVASIVENESS (no pretreatment): decreased
MDA-MB-231 cells [2]; Hypoxia, 5 μM, listed as Riluzole
  INVASIVENESS (no pretreatment): significantly inhibited invasiveness
MDA-MB-231 cells [2]; Normoxia, 1 μM
  INVASIVENESS (no pretreatment): decreased
MDA-MB-231 cells [3]; 1 μM
  CELL VIABILITY: no effect
MDA-MB-231 cells [3]; 10 μM
  CELL VIABILITY: decreased the cell viability
MDA-MB-231 cells [3]; 10 μM, listed as RILUZOLE
  CELL VIABILITY: cell death
MDA-MB-231 cells [3]; 100 μM
  CELL VIABILITY: decreased the cell viability
MDA-MB-231 cells [3]; 100 μM, listed as RILUZOLE
  CELL VIABILITY: cell death
Mat-LyLu cells; Hypoxia, 1 μM, listed as RILUZOLE
  INVASIVENESS (no pretreatment): decreased
Mat-LyLu cells; Hypoxia, 1 μM, listed as Riluzole
  INVASIVENESS (no pretreatment): significantly inhibited invasiveness
Mat-LyLu cells; Hypoxia, 2.5 μM
  INVASIVENESS (no pretreatment): decreased
Mat-LyLu cells; Hypoxia, 5 μM
  INVASIVENESS (no pretreatment): decreased
Mat-LyLu cells; Normoxia, 1 μM, listed as RILUZOLE
  INVASIVENESS (no pretreatment): decreased
Mat-LyLu cells; Normoxia, 1 μM, listed as Riluzole
  INVASIVENESS (no pretreatment): significantly inhibited invasiveness
Mat-LyLu cells; Normoxia, 2.5 μM
  INVASIVENESS (no pretreatment): decreased
Mat-LyLu cells; Normoxia, 5 μM
  INVASIVENESS (no pretreatment): decreased

— US12534444B2, “Treatment of cancer/inhibition of metastasis” (Celex Oncology Innovations Limited, priority 2010, dated 2026)
